Measured values from ChEMBL document CHEMBL1821658, “Synthesis, antimicrobial evaluation and QSAR analysis of novel nalidixic acid based 1,2,4-triazole derivatives” (2011).
Values after ≈ are worked out from the molar mass of the structure shown.

Tests used:
Type in all cases: functional
Klebsiella pneumoniae = assay: Antibacterial activity against Klebsiella pneumoniae ATCC 31488 after 24 hrs by broth micro dilution assay; conditions: ATCC 31488, 24 h
Aspergillus niger = assay: Antifungal activity against Aspergillus niger by food poison technique; conditions: read-out: ED50 (the source's name)
Pseudomonas aeruginosa = assay: Antibacterial activity against Pseudomonas aeruginosa ATCC 9027 after 24 hrs by broth micro dilution assay; conditions: ATCC 9027, 24 h
Escherichia coli = assay: Antibacterial activity against Escherichia coli ATCC 8739 after 24 hrs by broth micro dilution assay; conditions: ATCC 8739, 24 h
Bacillus subtilis = assay: Antibacterial activity against Bacillus subtilis ATCC 12711 after 24 hrs by broth micro dilution assay; conditions: ATCC 12711, 24 h
Fusarium oxysporum = assay: Antifungal activity against Fusarium oxysporum by food poison technique; conditions: read-out: ED50 (the source's name)
Staphylococcus aureus = assay: Antibacterial activity against Staphylococcus aureus ATCC 2937 after 24 hrs by broth micro dilution assay; conditions: ATCC 2937, 24 h

Row | MIC90 (Klebsiella pneumoniae) [µg/mL] | MIC90 (Pseudomonas aeruginosa) [µg/mL] | MIC90 (Escherichia coli) [µg/mL] | MIC90 (Bacillus subtilis) [µg/mL] | MIC90 (Staphylococcus aureus) [µg/mL] | Structure (SMILES) | EC50 (Aspergillus niger) [µg/mL] | EC50 (Fusarium oxysporum) [µg/mL]
1 | 16 (≈ 37.8 µM) | 16 (≈ 37.8 µM) | 16 (≈ 37.8 µM) | 16 (≈ 37.8 µM) | 16 (≈ 37.8 µM) | CCn1cc(-c2nnc3sc(-c4ccccc4Cl)nn23)c(=O)c2ccc(C)nc21 | 75.5 (≈ 178 µM) | 86.6 (≈ 205 µM)
2 | 125 (≈ 308 µM) | 63 (≈ 155 µM) | 125 (≈ 308 µM) | 125 (≈ 308 µM) | 125 (≈ 308 µM) | CCn1cc(-c2nnc(S)n2/N=C/c2ccc(O)cc2)c(=O)c2ccc(C)nc21 | 549 (≈ 1350 µM) | 203 (≈ 500 µM)
3 | 63 (≈ 156 µM) | 63 (≈ 156 µM) | 125 (≈ 309 µM) | 125 (≈ 309 µM) | 63 (≈ 156 µM) | CCn1cc(-c2nnc(S)n2/N=C/c2ccc(C)cc2)c(=O)c2ccc(C)nc21 | 76.6 (≈ 189 µM) | 205 (≈ 507 µM)
4 | 125 (≈ 288 µM) | 63 (≈ 145 µM) | 125 (≈ 288 µM) | 125 (≈ 288 µM) | 125 (≈ 288 µM) | CCn1cc(-c2nnc3sc(-c4cccc([N+](=O)[O-])c4)nn23)c(=O)c2ccc(C)nc21 | 71 (≈ 164 µM) | 148 (≈ 342 µM)
5 | 31 (≈ 90 µM) | 250 (≈ 726 µM) | 63 (≈ 183 µM) | 63 (≈ 183 µM) | 63 (≈ 183 µM) | CCn1cc(-c2nnc(S)n2NC(C)=O)c(=O)c2ccc(C)nc21 | 111 (≈ 322 µM) | 166 (≈ 481 µM)
6 | 31 (≈ 66 µM) | 16 (≈ 34.1 µM) | 125 (≈ 266 µM) | 16 (≈ 34.1 µM) | 125 (≈ 266 µM) | CCn1cc(-c2nnc(S)n2/N=C/c2cccc(Br)c2)c(=O)c2ccc(C)nc21 | 111 (≈ 237 µM) | 74.1 (≈ 158 µM)
7 | 125 (≈ 322 µM) | 63 (≈ 162 µM) | 63 (≈ 162 µM) | 125 (≈ 322 µM) | 63 (≈ 162 µM) | CCn1cc(-c2nnc3sc(-c4ccccc4)nn23)c(=O)c2ccc(C)nc21 | 79.6 (≈ 205 µM) | 103 (≈ 265 µM)
8 | 16 (≈ 41 µM) | 16 (≈ 41 µM) | 16 (≈ 41 µM) | 250 (≈ 640 µM) | 250 (≈ 640 µM) | CCn1cc(-c2nnc(S)n2/N=C/c2ccccc2)c(=O)c2ccc(C)nc21 | 77.7 (≈ 199 µM) | 78.2 (≈ 200 µM)
9 | 63 (≈ 145 µM) | 63 (≈ 145 µM) | 125 (≈ 288 µM) | 63 (≈ 145 µM) | 125 (≈ 288 µM) | CCOc1ccc(/C=N/n2c(S)nnc2-c2cn(CC)c3nc(C)ccc3c2=O)cc1 | 86.6 (≈ 199 µM) | 89.3 (≈ 206 µM)
10 | 250 (≈ 574 µM) | 63 (≈ 145 µM) | 125 (≈ 287 µM) | 125 (≈ 287 µM) | 125 (≈ 287 µM) | CCn1cc(-c2nnc(S)n2/N=C/c2cccc([N+](=O)[O-])c2)c(=O)c2ccc(C)nc21 | 161 (≈ 369 µM) | 138 (≈ 317 µM)
11 | 63 (≈ 151 µM) | 63 (≈ 151 µM) | 250 (≈ 597 µM) | 63 (≈ 151 µM) | 63 (≈ 151 µM) | CCc1ccc(/C=N/n2c(S)nnc2-c2cn(CC)c3nc(C)ccc3c2=O)cc1 | 229 (≈ 547 µM) | 191 (≈ 456 µM)
12 | 63 (≈ 138 µM) | 63 (≈ 138 µM) | 31 (≈ 67.8 µM) | 63 (≈ 138 µM) | 125 (≈ 273 µM) | CCn1cc(-c2nnc3sc(-c4cccc(Cl)c4Cl)nn23)c(=O)c2ccc(C)nc21 | 109 (≈ 239 µM) | 96.9 (≈ 212 µM)
13 | 125 (≈ 296 µM) | 125 (≈ 296 µM) | 63 (≈ 149 µM) | 63 (≈ 149 µM) | 63 (≈ 149 µM) | CCn1cc(-c2nnc3sc(-c4ccc(Cl)cc4)nn23)c(=O)c2ccc(C)nc21 | 514 (≈ 1210 µM) | 121 (≈ 287 µM)
14 | 125 (≈ 289 µM) | 16 (≈ 37 µM) | 250 (≈ 578 µM) | 16 (≈ 37 µM) | 63 (≈ 146 µM) | CCn1cc(-c2nnc(S)n2/N=C/c2ccc(C(C)C)cc2)c(=O)c2ccc(C)nc21 | 113 (≈ 262 µM) | 106 (≈ 246 µM)
15 | 63 (≈ 141 µM) | 63 (≈ 141 µM) | 63 (≈ 141 µM) | 31 (≈ 69.4 µM) | 125 (≈ 280 µM) | CCn1cc(-c2nnc(S)n2/N=C/c2ccc(C(C)(C)C)cc2)c(=O)c2ccc(C)nc21 | 134 (≈ 299 µM) | 117 (≈ 262 µM)
16 | 2.5 (≈ 7.54 µM) | 1.25 (≈ 3.77 µM) | 12.5 (≈ 37.7 µM) | 12.5 (≈ 37.7 µM) | 10 (≈ 30.2 µM) | O=C(O)c1cn(C2CC2)c2cc(N3CCNCC3)c(F)cc2c1=O [CIPROFLOXACIN] | – | –
17 | 63 (≈ 144 µM) | 63 (≈ 144 µM) | 250 (≈ 573 µM) | 125 (≈ 286 µM) | 250 (≈ 573 µM) | CCn1cc(-c2nnc(S)n2/N=C/c2ccc(SC)cc2)c(=O)c2ccc(C)nc21 | 251 (≈ 574 µM) | 104 (≈ 239 µM)
18 | 63 (≈ 219 µM) | 125 (≈ 435 µM) | 63 (≈ 219 µM) | 31 (≈ 108 µM) | 63 (≈ 219 µM) | CCn1cc(-c2nnc(S)[nH]2)c(=O)c2ccc(C)nc21 | 76 (≈ 265 µM) | 111 (≈ 387 µM)

Row | MIC90 (Klebsiella pneumoniae) [µg/mL] | MIC90 (Pseudomonas aeruginosa) [µg/mL] | MIC90 (Escherichia coli) [µg/mL] | MIC90 (Bacillus subtilis) [µg/mL] | MIC90 (Staphylococcus aureus) [µg/mL] | Structure (SMILES) | EC50 (Aspergillus niger) [µg/mL] | EC50 (Fusarium oxysporum) [µg/mL]
19 | 63 (≈ 208 µM) | 63 (≈ 208 µM) | 125 (≈ 413 µM) | 63 (≈ 208 µM) | 63 (≈ 208 µM) | CCn1cc(-c2nnc(S)n2N)c(=O)c2ccc(C)nc21 | 567 (≈ 1880 µM) | 382 (≈ 1260 µM)
20 | 63 (≈ 152 µM) | 63 (≈ 152 µM) | 125 (≈ 301 µM) | 63 (≈ 152 µM) | 63 (≈ 152 µM) | CCn1cc(-c2nnc(S)n2/N=C/c2ccc(C#N)cc2)c(=O)c2ccc(C)nc21 | 156 (≈ 376 µM) | 177 (≈ 426 µM)
21 | 63 (≈ 183 µM) | 31 (≈ 90 µM) | 63 (≈ 183 µM) | 125 (≈ 363 µM) | 250 (≈ 726 µM) | CCn1cc(-c2nnc3sc(S)nn23)c(=O)c2ccc(C)nc21 | 92.7 (≈ 269 µM) | 267 (≈ 775 µM)
22 | 250 (≈ 544 µM) | 63 (≈ 137 µM) | 250 (≈ 544 µM) | 125 (≈ 272 µM) | 125 (≈ 272 µM) | CCn1cc(-c2nnc(S)n2/N=C/c2ccc(Cl)cc2Cl)c(=O)c2ccc(C)nc21 | 502 (≈ 1090 µM) | 103 (≈ 224 µM)
23 | 250 (≈ 588 µM) | 16 (≈ 37.7 µM) | 250 (≈ 588 µM) | 16 (≈ 37.7 µM) | 125 (≈ 294 µM) | CCn1cc(-c2nnc(S)n2/N=C/c2ccc(Cl)cc2)c(=O)c2ccc(C)nc21 | 120 (≈ 282 µM) | 79.5 (≈ 187 µM)
24 | 125 (≈ 273 µM) | 63 (≈ 137 µM) | 250 (≈ 545 µM) | 63 (≈ 137 µM) | 250 (≈ 545 µM) | CCn1cc(-c2nnc(S)n2/N=C/c2ccc(C(F)(F)F)cc2)c(=O)c2ccc(C)nc21 | 299 (≈ 652 µM) | 101 (≈ 220 µM)
25 | 63 (≈ 157 µM) | 125 (≈ 311 µM) | 125 (≈ 311 µM) | 125 (≈ 311 µM) | 63 (≈ 157 µM) | CCn1cc(-c2nnc3n2N=C(c2ccccc2)CS3)c(=O)c2ccc(C)nc21 | 148 (≈ 369 µM) | 144 (≈ 359 µM)
26 | 125 (≈ 272 µM) | 63 (≈ 137 µM) | 16 (≈ 34.8 µM) | 31 (≈ 67.5 µM) | 125 (≈ 272 µM) | CCn1cc(-c2nnc(S)n2/N=C/c2c(Cl)cccc2Cl)c(=O)c2ccc(C)nc21 | 101 (≈ 221 µM) | 112 (≈ 245 µM)
27 | 31 (≈ 73.7 µM) | 16 (≈ 38.1 µM) | 250 (≈ 595 µM) | 16 (≈ 38.1 µM) | 125 (≈ 297 µM) | CCn1cc(-c2nnc(S)n2/N=C/c2ccc(OC)cc2)c(=O)c2ccc(C)nc21 | 105 (≈ 249 µM) | 152 (≈ 362 µM)
28 | 2 (≈ 3.44 µM) | 4 (≈ 6.88 µM) | 13 (≈ 22.4 µM) | 5 (≈ 8.6 µM) | 15 (≈ 25.8 µM) | CN[C@@H]1[C@H](O[C@H]2[C@H](O[C@H]3[C@H](O)[C@@H](O)[C@H](N=C(N)N)[C@@H](O)[C@@H]3N=C(N)N)O[C@@H](C)[C@]2(O)C=O)O[C@@H](CO)[C@H](O)[C@H]1O [STREPTOMYCIN] | – | –
29 | 250 (≈ 612 µM) | 16 (≈ 39.2 µM) | 250 (≈ 612 µM) | 63 (≈ 154 µM) | 125 (≈ 306 µM) | CCn1cc(-c2nnc(S)n2/N=C/c2ccc(F)cc2)c(=O)c2ccc(C)nc21 | 134 (≈ 327 µM) | 163 (≈ 400 µM)
30 | 63 (≈ 177 µM) | 125 (≈ 351 µM) | 125 (≈ 351 µM) | 125 (≈ 351 µM) | 250 (≈ 702 µM) | CCn1cc(-c2nnc3sc(=O)c(=O)[nH]n23)c(=O)c2ccc(C)nc21 | 348 (≈ 975 µM) | 164 (≈ 461 µM)
31 | 63 (≈ 149 µM) | 63 (≈ 149 µM) | 63 (≈ 149 µM) | 31 (≈ 73.3 µM) | 63 (≈ 149 µM) | CCn1cc(-c2nnc3sc(-c4cccc(Cl)c4)nn23)c(=O)c2ccc(C)nc21 | 144 (≈ 342 µM) | 103 (≈ 243 µM)
32 | 63 (≈ 145 µM) | 63 (≈ 145 µM) | 125 (≈ 287 µM) | 125 (≈ 287 µM) | 125 (≈ 287 µM) | CCn1cc(-c2nnc(S)n2/N=C/c2ccc([N+](=O)[O-])cc2)c(=O)c2ccc(C)nc21 | 149 (≈ 342 µM) | 100 (≈ 230 µM)
33 | 250 (≈ 533 µM) | 62 (≈ 132 µM) | 250 (≈ 533 µM) | 250 (≈ 533 µM) | 125 (≈ 266 µM) | CCn1cc(-c2nnc(S)n2/N=C/c2ccc(Br)cc2)c(=O)c2ccc(C)nc21 | 144 (≈ 306 µM) | 107 (≈ 227 µM)
34 | 63 (≈ 155 µM) | 63 (≈ 155 µM) | 63 (≈ 155 µM) | 63 (≈ 155 µM) | 63 (≈ 155 µM) | CCn1cc(-c2nnc(S)n2NC(=O)c2ccccc2)c(=O)c2ccc(C)nc21 | 88.5 (≈ 218 µM) | 110 (≈ 270 µM)
35 | 63 (≈ 145 µM) | 16 (≈ 36.9 µM) | 63 (≈ 145 µM) | 16 (≈ 36.9 µM) | 125 (≈ 288 µM) | CCn1cc(-c2nnc(S)n2/N=C/c2ccc(N(C)C)cc2)c(=O)c2ccc(C)nc21 | 101 (≈ 233 µM) | 104 (≈ 239 µM)
